The experiment has as its system MV-4-11 cells. The experiment in a line: Gene expression microarray analysis (Affymetrix PrimeView) and GSEA. The format is cell-based, human. Further details: RFU PODN (11730768_x_at) / Fold change /veh PODN (11730768_x_at) / RFU LINC00158 (11744669_a_at) / Fold change /veh LINC00158 (11744669_a_at) / RFU DUSP10 (11751237_a_at) / Fold change /veh DUSP10 (11751237_a_at) / RFU ID3 (11757404_x_at) / Fold change /veh ID3 (11757404_x_at) / RFU PLEKHG5 (11737974_s_at) / Fold change /veh PLEKHG5 (11737974_s_at) / RFU LRRC4B (11730491_at) / Fold change /veh LRRC4B (11730491_at) / RFU GIMAP4 (11747438_a_at) / Fold change /veh GIMAP4 (11747438_a_at) / RFU KRT8 (11758183_x_at) / Fold change /veh KRT8 (11758183_x_at) / RFU CNN1 (11734310_a_at) / Fold change /veh CNN1 (11734310_a_at) / RFU VPS37D (11726825_at) / Fold change /veh VPS37D (11726825_at) / RFU C10orf10 (11716522_x_at) / Fold change /veh C10orf10 (11716522_x_at) / RFU KIR2DL2 /// KIR2DL4 /// KIR2DL5A /// KIR2DL5B /// KIR2DS1 /// KIR2DS2 /// KIR2DS3 /// KIR2DS4 /// KIR3DL3 /// KIR3DL3 /// KIR3DS1 (11738374_at) / Fold change /veh KIR2DL2 /// KIR2DL4 /// KIR2DL5A /// KIR2DL5B /// KIR2DS1 /// KIR2DS2 /// KIR2DS3 /// KIR2DS4 /// KIR3DL3 /// KIR3DL3 /// KIR3DS1 (11738374_at) / RFU C1QL1 (11718748_at) / Fold change /veh C1QL1 (11718748_at) / RFU TMPRSS4 (11747572_a_at) / Fold change /veh TMPRSS4 (11747572_a_at) / RFU HAMP (11756126_x_at) / Fold change /veh HAMP (11756126_x_at) / RFU RNFT2 (11725882_a_at) / Fold change /veh RNFT2 (11725882_a_at) / RFU NR4A2 (11747474_a_at) / Fold change /veh NR4A2 (11747474_a_at) / RFU ABCC12 (11746883_a_at) / Fold change /veh ABCC12 (11746883_a_at) / RFU TMEM136 (11760407_x_at) / Fold change /veh TMEM136 (11760407_x_at) / RFU CLDN22 /// WWC2 (11732394_at) / Fold change /veh CLDN22 /// WWC2 (11732394_at) / RFU HLA-DPB1 (11760878_x_at) / Fold change /veh HLA-DPB1 (11760878_x_at) / RFU SPINT1 (11716480_a_at) / Fold change /veh SPINT1 (11716480_a_at) / RFU GAP43 (11754022_s_at) / Fold change /veh GAP43 (11754022_s_at) / RFU A4GNT (11735810_at) / Fold change /veh A4GNT (11735810_at) / RFU PRB3 (11715151_x_at) / Fold change /veh PRB3 (11715151_x_at) / RFU TUBB4B (11761932_at) / Fold change /veh TUBB4B (11761932_at) / RFU CAPN14 (11732068_a_at) / Fold change /veh CAPN14 (11732068_a_at) / RFU TMCC2 (11721928_a_at) / Fold change /veh TMCC2 (11721928_a_at) / RFU IRGQ (11745062_a_at) / Fold change /veh IRGQ (11745062_a_at) / RFU FAM174B (11720279_a_at) / Fold change /veh FAM174B (11720279_a_at) / RFU TMPRSS4 (11748680_a_at) / Fold change /veh TMPRSS4 (11748680_a_at) / RFU FAM212B (11763350_a_at) / Fold change /veh FAM212B (11763350_a_at) / RFU PLEKHG5 (11743358_a_at) / Fold change /veh PLEKHG5 (11743358_a_at) / RFU ZSCAN30 (11745921_a_at) / Fold change /veh ZSCAN30 (11745921_a_at) / RFU CMKLR1 (11741424_a_at) / Fold change /veh CMKLR1 (11741424_a_at) / RFU LOC101060620 /// MAPK8IP1 (11723275_at) / Fold change /veh LOC101060620 /// MAPK8IP1 (11723275_at) / RFU SPTSSB (11747773_x_at) / Fold change /veh SPTSSB (11747773_x_at) / RFU PRSS12 (11739890_at) / Fold change /veh PRSS12 (11739890_at) / RFU BIN1 (11741810_x_at) / Fold change /veh BIN1 (11741810_x_at) / RFU WNT11 (11732464_a_at) / Fold change /veh WNT11 (11732464_a_at) / RFU C10orf10 (11716521_a_at) / Fold change /veh C10orf10 (11716521_a_at) / RFU C5orf56 (11738089_at) / Fold change /veh C5orf56 (11738089_at) / RFU CYB561 (11721691_x_at) / Fold change /veh CYB561 (11721691_x_at) / RFU ANKRD19P (11752326_a_at) / Fold change /veh ANKRD19P (11752326_a_at) / RFU OR2T12 /// OR2T33 /// OR2T8 (11738714_s_at) / Fold change /veh OR2T12 /// OR2T33 /// OR2T8 (11738714_s_at) / RFU VCAN (11748164_a_at) / Fold change /veh VCAN (11748164_a_at) / RFU JSRP1 (11732532_at) / Fold change /veh JSRP1 (11732532_at) / RFU KRTAP10-11 (11738290_x_at) / Fold change /veh KRTAP10-11 (11738290_x_at) / RFU MYO3A (11730013_a_at) / Fold change /veh MYO3A (11730013_a_at) / RFU EBF3 (11725865_a_at) / Fold change /veh EBF3 (11725865_a_at) / RFU CAMK2N1 (11719241_x_at) / Fold change /veh CAMK2N1 (11719241_x_at) / RFU C5orf56 (11738088_a_at) / Fold change /veh C5orf56 (11738088_a_at) / RFU OLFML3 (11715873_a_at) / Fold change /veh OLFML3 (11715873_a_at) / RFU LOC100653217 /// NTM (11731650_a_at) / Fold change /veh LOC100653217 /// NTM (11731650_a_at) / RFU MAPK11 (11762145_a_at) / Fold change /veh MAPK11 (11762145_a_at) / RFU FIZ1 (11724087_x_at) / Fold change /veh FIZ1 (11724087_x_at) / RFU OASL (11726364_x_at) / Fold change /veh OASL (11726364_x_at) / RFU SOX15 (11748057_x_at) / Fold change /veh SOX15 (11748057_x_at) / RFU CD79A (11719716_a_at) / Fold change /veh CD79A (11719716_a_at) / RFU HIST1H1D (11736915_at) / Fold change /veh HIST1H1D (11736915_at) / RFU CASKIN2 (11723855_a_at) / Fold change /veh CASKIN2 (11723855_a_at) / RFU LOC730098 (11760151_x_at) / Fold change /veh LOC730098 (11760151_x_at) / RFU OR4N2 (11742367_at) / Fold change /veh OR4N2 (11742367_at) / RFU PRRT2 (11749266_a_at) / Fold change /veh PRRT2 (11749266_a_at) / RFU SNX32 (11753110_a_at) / Fold change /veh SNX32 (11753110_a_at) / RFU CDHR5 (11726645_a_at) / Fold change /veh CDHR5 (11726645_a_at) / RFU RCAN1 (11760418_a_at) / Fold change /veh RCAN1 (11760418_a_at) / RFU FAM167A (11723789_a_at) / Fold change /veh FAM167A (11723789_a_at) / RFU FAM26E (11764081_at) / Fold change /veh FAM26E (11764081_at) / RFU ISYNA1 (11749810_s_at) / Fold change /veh ISYNA1 (11749810_s_at) / RFU ACY1 (11761880_at) / Fold change /veh ACY1 (11761880_at) / RFU 11764098_at / Fold change /veh 11764098_at / RFU SAMD14 (11745864_x_at) / Fold change /veh SAMD14 (11745864_x_at) / RFU NPB (11741838_a_at) / Fold change /veh NPB (11741838_a_at) / RFU TMPRSS6 (11731388_a_at) / Fold change /veh TMPRSS6 (11731388_a_at) / RFU KRTAP10-2 (11738614_at) / Fold change /veh KRTAP10-2 (11738614_at) / RFU ARHGAP8 /// PRR5-ARHGAP8 (11727945_x_at) / Fold change /veh ARHGAP8 /// PRR5-ARHGAP8 (11727945_x_at) / RFU KRTAP5-7 /// NADSYN1 (11734609_at) / Fold change /veh KRTAP5-7 /// NADSYN1 (11734609_at) / RFU RASL12 (11751679_a_at) / Fold change /veh RASL12 (11751679_a_at) / RFU CDKN2B (11736163_a_at) / Fold change /veh CDKN2B (11736163_a_at) / RFU PRF1 (11729649_at) / Fold change /veh PRF1 (11729649_at) / RFU, ZNF638 /// ZNF638-IT1 / Fold change vs veh, ZNF638 /// ZNF638-IT1 / RFU, PANK3 / Fold change vs veh, PANK3 / RFU, SH3YL1 / Fold change vs veh, SH3YL1 / RFU, ZEB2 / Fold change vs veh, ZEB2 / RFU, NRIP1 / Fold change vs veh, NRIP1 / RFU, PTTG1IP / Fold change vs veh, PTTG1IP / RFU, CAPN2 / Fold change vs veh, CAPN2 / RFU, MED14 / Fold change vs veh, MED14 / RFU, SNORA58 / Fold change vs veh, SNORA58 / RFU, C1orf63 / Fold change vs veh, C1orf63 / RFU, LRRFIP1 / Fold change vs veh, LRRFIP1 / RFU, NDUFAF7 / Fold change vs veh, NDUFAF7 / RFU, SLC12A2 / Fold change vs veh, SLC12A2 / RFU, IBTK / Fold change vs veh, IBTK / RFU, ESF1 / Fold change vs veh, ESF1 / Fold change vs veh, TMEM50B / RFU, TAOK1 / Fold change vs veh, TAOK1 / RFU, ACBD3 / Fold change vs veh, ACBD3 / RFU, TMA16 / Fold change vs veh, TMA16 / RFU, RWDD3 / Fold change vs veh, RWDD3 / RFU, BCAT1 / Fold change vs veh, BCAT1 / RFU, EDEM3 / Fold change vs veh, EDEM3 / RFU, TMEM33 / Fold change vs veh, TMEM33 / RFU, WDR75 / Fold change vs veh, WDR75 / RFU, AHCTF1 / Fold change vs veh, AHCTF1 / RFU, TFRC / Fold change vs veh, TFRC / RFU, ZDHHC17 / Fold change vs veh, ZDHHC17 / RFU, NOM1 / Fold change vs veh, NOM1 / RFU, ARL8B / Fold change vs veh, ARL8B / RFU, ZBTB11 / Fold change vs veh, ZBTB11 / RFU, TAMM41 / Fold change vs veh, TAMM41 / RFU, KIAA1704 /// LOC100996395 / Fold change vs veh, KIAA1704 /// LOC100996395 / RFU, ING1 / Fold change vs veh, ING1 / RFU, TRMT61B / Fold change vs veh, TRMT61B / RFU, FUBP3 / Fold change vs veh, FUBP3 / RFU, TP53 / Fold change vs veh, TP53 / RFU, TNKS2 / Fold change vs veh, TNKS2 / RFU, ZFP14 / Fold change vs veh, ZFP14 / RFU, ACTR2 / Fold change vs veh, ACTR2 / RFU, PPP3R1 / Fold change vs veh, PPP3R1 / RFU, PIK3R1 / Fold change vs veh, PIK3R1 / RFU, HNRNPA1 / Fold change vs veh, HNRNPA1 / RFU, RNF170 / Fold change vs veh, RNF170 / RFU, ZNF28 / Fold change vs veh, ZNF28 / RFU, RNGTT / Fold change vs veh, RNGTT / RFU, OGT / Fold change vs veh, OGT / RFU, BRD1 / Fold change vs veh, BRD1 / RFU, MARS / Fold change vs veh, MARS / RFU, ZNF655 / Fold change vs veh, ZNF655 / RFU, FAHD1 / Fold change vs veh, FAHD1 / RFU, BDP1 / Fold change vs veh, BDP1 / RFU, LRRCC1 / Fold change vs veh, LRRCC1 / RFU, ARID1A / Fold change vs veh, ARID1A / RFU, ZNF146 / Fold change vs veh, ZNF146 / RFU, ZNF330 / Fold change vs veh, ZNF330 / RFU, GPN3 / Fold change vs veh, GPN3 / RFU, C9orf123 / Fold change vs veh, C9orf123 / RFU, N4BP2L2 / Fold change vs veh, N4BP2L2 / RFU, ARFIP1 / Fold change vs veh, ARFIP1 / RFU, FAM179B / Fold change vs veh, FAM179B / RFU, BCL10 / Fold change vs veh, BCL10 / RFU, UHRF1BP1L / Fold change vs veh, UHRF1BP1L / RFU, BET1 / Fold change vs veh, BET1 / RFU, CNOT2 / Fold change vs veh, CNOT2 / RFU, ZNF268 / Fold change vs veh, ZNF268 / Fold change vs veh, ZNF507 / RFU, DGCR2 / Fold change vs veh, DGCR2 / RFU, WDSUB1 / Fold change vs veh, WDSUB1 / Fold change vs veh, HSP90B1 /// MIR3652 / RFU, ADSS / Fold change vs veh, ADSS / RFU, GK / Fold change vs veh, GK / RFU, ZNF148 / Fold change vs veh, ZNF148 / RFU, TAF9 / Fold change vs veh, TAF9 / RFU, SLC1A5 / Fold change vs veh, SLC1A5 / RFU, SLMO2 / Fold change vs veh, SLMO2 / RFU, ABCC4 / Fold change vs veh, ABCC4 / RFU, LOC101060439 /// RAP1B / Fold change vs veh, LOC101060439 /// RAP1B / RFU, RFX7 / Fold change vs veh, RFX7 / RFU, GTPBP10 / Fold change vs veh, GTPBP10 / RFU, CNEP1R1 / Fold change vs veh, CNEP1R1 / RFU, BIVM-ERCC5 /// ERCC5 / Fold change vs veh, BIVM-ERCC5 /// ERCC5 / RFU, ILF3 / Fold change vs veh, ILF3 / RFU 11762660_at / Fold change /veh 11762660_at / RFU VCAN (11757783_s_at) / Fold change /veh VCAN (11757783_s_at) / RFU DDX43 (11728927_at) / Fold change /veh DDX43 (11728927_at) / RFU KRT8 (11758188_x_at) / Fold change /veh KRT8 (11758188_x_at) / RFU NKD1 (11759106_at) / Fold change /veh NKD1 (11759106_at) / RFU SRD5A1 (11742802_a_at) / Fold change /veh SRD5A1 (11742802_a_at) / RFU TPSAB1 /// TPSB2 (11721975_s_at) / Fold change /veh TPSAB1 /// TPSB2 (11721975_s_at) / RFU GSTM3 (11746129_a_at) / Fold change /veh GSTM3 (11746129_a_at) / RFU IL23R (11737362_x_at) / Fold change /veh IL23R (11737362_x_at) / RFU TMEM51 (11727254_a_at) / Fold change /veh TMEM51 (11727254_a_at) / RFU PIWIL2 (11732686_x_at) / Fold change /veh PIWIL2 (11732686_x_at) / RFU ORM1 (11744905_x_at) / Fold change /veh ORM1 (11744905_x_at) / RFU CCDC152 (11743942_at) / Fold change /veh CCDC152 (11743942_at) / RFU ECM1 (11717891_a_at) / Fold change /veh ECM1 (11717891_a_at) / RFU IL23R (11748794_a_at) / Fold change /veh IL23R (11748794_a_at) / RFU TNFAIP8L3 (11732012_x_at) / Fold change /veh TNFAIP8L3 (11732012_x_at) / RFU MBOAT4 (11741988_at) / Fold change /veh MBOAT4 (11741988_at) / RFU 11764193_at / Fold change /veh 11764193_at / RFU TMEM53 (11763286_at) / Fold change /veh TMEM53 (11763286_at) / RFU MAGEB2 (11727129_at) / Fold change /veh MAGEB2 (11727129_at) / RFU TMEM200A (11744735_a_at) / Fold change /veh TMEM200A (11744735_a_at) / RFU CCDC152 (11751479_a_at) / Fold change /veh CCDC152 (11751479_a_at) / RFU FAM211A (11726209_a_at) / Fold change /veh FAM211A (11726209_a_at) / RFU RGS16 (11746705_a_at) / Fold change /veh RGS16 (11746705_a_at) / RFU VCAN (11755009_s_at) / Fold change /veh VCAN (11755009_s_at) / RFU RHOB (11743442_s_at) / Fold change /veh RHOB (11743442_s_at) / RFU RGS16 (11720943_a_at) / Fold change /veh RGS16 (11720943_a_at) / RFU RGS16 (11720944_at) / Fold change /veh RGS16 (11720944_at) / RFU, VPS4B / Fold change vs veh, VPS4B / RFU, CREB1 / Fold change vs veh, CREB1 / RFU, DNAJC13 / Fold change vs veh, DNAJC13 / RFU, GNAQ / Fold change vs veh, GNAQ / RFU, CDK5R1 / Fold change vs veh, CDK5R1 / RFU, ZRANB3 / Fold change vs veh, ZRANB3 / RFU, CUL4A / Fold change vs veh, CUL4A / RFU, CCNY / Fold change vs veh, CCNY / RFU, UFL1 / Fold change vs veh, UFL1 / RFU, COG3 / Fold change vs veh, COG3 / RFU, DIAPH2 / Fold change vs veh, DIAPH2 / RFU, SKA2 / Fold change vs veh, SKA2 / RFU, AFF3 / Fold change vs veh, AFF3 / RFU, LMF1 / Fold change vs veh, LMF1 / RFU, IPO11 / Fold change vs veh, IPO11 / RFU, DFFB / Fold change vs veh, DFFB / RFU, FOXP1 / Fold change vs veh, FOXP1 / RFU, CARD8 / Fold change vs veh, CARD8 / RFU, STRN3 / Fold change vs veh, STRN3 / RFU, ADK / Fold change vs veh, ADK / RFU, RASSF2 / Fold change vs veh, RASSF2 / RFU, WIPF1 / Fold change vs veh, WIPF1 / RFU, LARP1B / Fold change vs veh, LARP1B / RFU, RASA1 / Fold change vs veh, RASA1 / RFU, RB1 / Fold change vs veh, RB1 / RFU, PPFIA1 / Fold change vs veh, PPFIA1 / RFU, MAT2A / Fold change vs veh, MAT2A / RFU, CCT5 / Fold change vs veh, CCT5 / RFU, WDR92 / Fold change vs veh, WDR92 / RFU, CUX1 / Fold change vs veh, CUX1 / RFU, TTC7A / Fold change vs veh, TTC7A / RFU, TMEM135 / Fold change vs veh, TMEM135 / RFU, DEPTOR / Fold change vs veh, DEPTOR / RFU, CPM / Fold change vs veh, CPM / RFU, DNAJB6 / Fold change vs veh, DNAJB6 / RFU, CACNA2D3 / Fold change vs veh, CACNA2D3 / RFU, DTX4 / Fold change vs veh, DTX4 / RFU, TFCP2 / Fold change vs veh, TFCP2 / RFU, GMCL1 /// GMCL1P1 / Fold change vs veh, GMCL1 /// GMCL1P1 / RFU, AEBP2 / Fold change vs veh, AEBP2 / RFU, SNHG1 /// SNORD22 /// SNORD25 /// SNORD26 /// SNORD27 /// SNORD28 /// SNORD29 /// SNORD31 / Fold change vs veh, SNHG1 /// SNORD22 /// SNORD25 /// SNORD26 /// SNORD27 /// SNORD28 /// SNORD29 /// SNORD31 / Fold change (Aza/veh), C12orf56 (ProbeSet 11735607_a_at) / Fold change (ACY-1035/veh), C12orf56 (ProbeSet 11735607_a_at) / Fold change (Aza/veh), FGFR1OP (ProbeSet 11751329_s_at) / Fold change (ACY-1035/veh), FGFR1OP (ProbeSet 11751329_s_at) / Fold change (Aza/veh), VPS36 (ProbeSet 11739960_a_at) / Fold change (ACY-1035/veh), VPS36 (ProbeSet 11739960_a_at) / RFU SYPL1 (11715823_x_at) / Fold change /veh SYPL1 (11715823_x_at) / RFU IGFBP7 (11715501_s_at) / Fold change /veh IGFBP7 (11715501_s_at) / RFU REEP3 (11722064_at) / Fold change /veh REEP3 (11722064_at) / RFU IGLL1 (11728026_x_at) / Fold change /veh IGLL1 (11728026_x_at): dose or concentration left out as unconfirmed. Particulars: ProbeSet 11717308_a_at; LIST B.

The structures appear in SMILES notation.

As to `Nc1ccc(-c2cccs2)cc1NC(=O)c1ccc2c(c1)cc(C1CC1)n2CCN1CCOCC1` [ACY-1035], the “Fold change vs veh, WDR75” value is reported as 0.92.

Source of the values: paper PMC5218480 (PLoS ONE, 2017).
